Experimental data published in PubChem BioAssay (NCI).
Values joined by “and” are separate entries in the source; they are usually repeats but may differ in a detail not shown here. Equal entries are not always repeated.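 1) Cells in 96-well plates. 2) Compound, 48 h, 5 concentrations. 3) Linear interpolation between surrounding doses. 4) Unreached endpoint = highest concentration. GI50 marks 50% less growth. TGI denotes the concentration required for complete inhibition of growth.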

What was measured:
Experiment in all cases: DTP human tumour cell line panel, 48 h
[1] = system: ACHN renal
[2] = system: HL-60(TB) leukemia
[3] = system: K-562 leukemia
[4] = system: KM12 colon
[5] = system: UACC-62 melanoma
[6] = system: A549 NSCLC
[7] = system: MCF7 breast
[8] = system: PC-3 prostate
[9] = system: SNB-75 CNS
[10] = system: SR leukemia

NC(=O)/N=C/c1c(O)c2ccccc2oc1=O
TGI [1]: > 100 µM | TGI [2]: > 100 µM | TGI [3]: > 100 µM | TGI [4]: > 100 µM | TGI [5]: > 100 µM

C/C(=N\NC(N)=S)c1nc2ncccc2[nH]1
TGI [6]: > 100 µM | TGI [1]: > 100 µM | TGI [2]: > 79.1 µM | TGI [3]: > 100 µM | TGI [4]: > 100 µM | TGI [7]: > 100 µM | TGI [8]: > 100 µM | TGI [9]: > 100 µM | TGI [10]: > 100 µM | TGI [5]: > 100 µM

COC(=O)c1c(O)ccc2c1c1c(n2Cc2cccc(C)c2)C(=O)c2ccccc2C1
TGI [6]: > 75 µM | TGI [1]: > 75 µM | TGI [2]: > 75 µM | TGI [3]: > 75 µM | TGI [7]: > 75 µM | TGI [8]: 27.6 µM | TGI [10]: 29.4 µM | TGI [5]: > 75 µM

COC(=O)C12Oc3ccc(-c4ccc5c(c4O)C(O)=C4C(=O)CC(C)C(O)C4(C(=O)OC)O5)c(O)c3C(O)=C1C(=O)CC(C)C2O (stereo unspecified)
TGI [6]: > 100 µM | TGI [1]: > 32.1 µM | TGI [2]: 0.319 µM | TGI [3]: > 100 µM | TGI [4]: > 100 µM | TGI [7]: > 100 µM | TGI [8]: 1.43 µM | TGI [9]: 2.92 µM | TGI [10]: 0.224 µM | TGI [5]: 1.37 µM

COc1cc(O)c(Cc2ccccc2O)c(O)c1C(=O)CCc1ccccc1
TGI [6]: 21.8 µM | TGI [2]: 20 µM | TGI [3]: 20 µM | TGI [4]: 25.3 µM | TGI [7]: 18 µM | TGI [9]: 19.7 µM | TGI [5]: 19.1 µM

COc1ccc2c3/c(=C\c4ccc(N(C)C)cc4)c4ccccc4n3[n+](C)c2c1
GI50 [6]: 0.236 µM | GI50 [1]: 0.404 µM | GI50 [2]: 0.051 µM | GI50 [3]: 0.0272 µM | TGI [3]: > 40 µM | GI50 [4]: 0.255 µM | TGI [4]: 1.24 µM | GI50 [8]: 0.124 µM | TGI [8]: 1.5 µM | GI50 [9]: 0.578 µM | TGI [9]: 4.18 µM | GI50 [5]: < 0.0275 µM | TGI [5]: 0.224 µM

O=C1C(=C([O-])c2ccccc2)C(=O)c2ccccc21.O=C1C(=C([O-])c2ccccc2)C(=O)c2ccccc21.[Ni+2]
GI50 [6]: 52.5 µM | TGI [6]: > 100 µM | GI50 [4]: 84.6 µM | TGI [4]: > 100 µM | GI50 [9]: 35.2 µM | TGI [9]: > 100 µM | GI50 [5]: 36.8 µM | TGI [5]: > 100 µM

Cn1c(=O)c2[nH]c(SC/C(=N/O)c3ccc(Br)cc3)nc2n(C)c1=O
GI50 [2]: 68.6 µM | TGI [2]: > 100 µM | GI50 [3]: 25.9 µM | TGI [3]: > 100 µM | GI50 [8]: > 100 µM | TGI [8]: > 100 µM | GI50 [9]: 2.04 µM | TGI [9]: 5.07 µM | GI50 [10]: 2.83 µM | TGI [10]: > 100 µM

CC1OC(O[C@@H]2C=C3CC[C@@H]4[C@H](CC[C@]5(C)[C@@H](c6ccc(=O)oc6)CC[C@]45O)[C@@]3(C)CC2)C(O)C(OC2OC(CO)C(O)C(O)C2O)C1O (stereo partly specified)
TGI [6]: 0.000142 µM | TGI [1]: 0.00301 µM | GI50 [4]: 0.000437 µM | TGI [4]: 0.182 µM and 0.039 µM | GI50 [7]: 0.000196 µM | TGI [7]: 0.0804 µM and 0.0468 µM | TGI [8]: 0.00942 µM | GI50 [9]: 0.000974 µM | TGI [9]: 0.0587 µM and 0.0407 µM | TGI [5]: 0.0263 µM

CC(=O)OCC1OC(N=[N+]=[N-])C(OC(C)=O)C(OC(C)=O)C1OC1OC(COC(C)=O)C(OC(C)=O)C(OC(C)=O)C1OC(C)=O (stereo unspecified)
TGI [6]: > 100 µM | TGI [1]: > 100 µM | TGI [2]: > 100 µM | TGI [3]: > 100 µM | TGI [4]: > 100 µM | TGI [9]: 60.8 µM | TGI [5]: > 100 µM

O=c1[nH]c(=O)n(C2CC(O)C(CO)O2)cc1Br (stereo unspecified)
TGI [6]: > 100 µM | TGI [1]: > 100 µM | TGI [2]: > 100 µM | TGI [3]: > 100 µM | TGI [4]: > 100 µM | TGI [7]: > 100 µM | TGI [8]: > 100 µM | TGI [9]: > 100 µM | TGI [5]: > 100 µM

Cc1cc(O)c2c(c1)C(C1c3cccc(O)c3C(=O)c3c(O)cc(C)cc31)c1cccc(O)c1C2=O (stereo unspecified)
TGI [6]: 0.97 µM | TGI [1]: 3.56 µM | TGI [2]: 6.72 µM | TGI [3]: 11.7 µM | TGI [4]: 4.29 µM | TGI [7]: 1.18 µM | TGI [8]: 2.81 µM | TGI [9]: 0.855 µM | TGI [10]: 3.32 µM

C=C1CCOC2(C(O)C(C)(O)CO)NC(=O)C1(O)NC2=O (stereo unspecified)
TGI [6]: > 100 µM | TGI [1]: > 100 µM | TGI [2]: > 100 µM | TGI [3]: > 100 µM | TGI [4]: > 100 µM | TGI [7]: > 100 µM | TGI [8]: > 100 µM | TGI [9]: > 100 µM | TGI [10]: > 100 µM | TGI [5]: > 100 µM
